Test results: ChEMBL document CHEMBL6083221, “11-Azaartemisinin derivatives bearing halogenated aromatic moieties: Potent anticancer agents with high tumor selectivity” (Bioorg Med Chem Lett, 2024)

Legend:
[1] = system: KB; experiment: Antiproliferative activity against human KB cells; assay type: functional, cell-based
[2] = system: HepG2; experiment: Antiproliferative activity against human HepG2 cells; assay type: functional, cell-based
[3] = system: A549; experiment: Antiproliferative activity against human A549 cells; assay type: functional, cell-based
[4] = Cytotoxicity against human HEK293 cells; assay type: toxicity, cell-based
[5] = Selectivity ratio of IC50 for human HEK293 cells to IC50 for human KB cells; assay type: toxicity; details: HEK293 cells versus KB cells, read-out: Ratio IC50
[6] = Selectivity ratio of IC50 for human HEK293 cells to IC50 for human HepG2 cells; assay type: toxicity; details: HEK293 cells versus HepG2 cells, read-out: Ratio IC50
[7] = Selectivity ratio of IC50 for human HEK293 cells to IC50 for human A549 cells; assay type: toxicity; details: HEK293 cells versus A549 cells, read-out: Ratio IC50

C[C@@H]1CC[C@H]2[C@@H](C)C(=O)N(Cc3cn(-c4cccc(Cl)c4)nn3)[C@@H]3O[C@@]4(C)CC[C@@H]1[C@@]23OO4
IC50 [1]: 235 µM
IC50 [2]: 215 µM
IC50 [3]: 151 µM

Cc1c2ccncc2c(C)c2c1[nH]c1ccccc12 [ELLIPTECINE]
IC50 [1]: 1.7 µM
IC50 [2]: 1.7 µM
IC50 [3]: 1.7 µM
IC50 [4]: 6.3 µM

C[C@@H]1CC[C@H]2[C@@H](C)C(=O)N(Cc3cn(-c4ccccc4Br)nn3)[C@@H]3O[C@@]4(C)CC[C@@H]1[C@@]23OO4
IC50 [1]: 32.3 µM
IC50 [2]: 42.5 µM
IC50 [3]: 32.9 µM

C[C@@H]1CC[C@H]2[C@@H](C)C(=O)N(Cc3cn(-c4cccc(Br)c4)nn3)[C@@H]3O[C@@]4(C)CC[C@@H]1[C@@]23OO4
IC50 [1]: 7.7 µM
IC50 [2]: 42.5 µM
IC50 [3]: 15.5 µM
IC50 [4]: > 247 µM
selectivity ratio [5]: 32
selectivity ratio [6]: 6
selectivity ratio [7]: 16

C[C@@H]1CC[C@H]2[C@@H](C)C(=O)N(Cc3cn(-c4cccc(F)c4)nn3)[C@@H]3O[C@@]4(C)CC[C@@H]1[C@@]23OO4
IC50 [1]: > 280 µM
IC50 [2]: > 280 µM
IC50 [3]: > 280 µM

C[C@@H]1CC[C@H]2[C@@H](C)C(=O)N(Cc3cn(-c4ccc(Br)cc4)nn3)[C@@H]3O[C@@]4(C)CC[C@@H]1[C@@]23OO4
IC50 [1]: 26.4 µM
IC50 [2]: 34.9 µM
IC50 [3]: 45.9 µM

C[C@@H]1CC[C@H]2[C@@H](C)C(=O)N(Cc3cn(-c4cccc(I)c4)nn3)[C@@H]3O[C@@]4(C)CC[C@@H]1[C@@]23OO4
IC50 [1]: 10.6 µM
IC50 [2]: 9.4 µM
IC50 [3]: 135 µM
IC50 [4]: 46.3 µM
selectivity ratio [5]: 4
selectivity ratio [6]: 5

C[C@@H]1CC[C@H]2[C@@H](C)C(=O)N(Cc3cn(-c4ccccc4I)nn3)[C@@H]3O[C@@]4(C)CC[C@@H]1[C@@]23OO4
IC50 [1]: 34.1 µM
IC50 [2]: 49.3 µM
IC50 [3]: 27.7 µM

C[C@@H]1CC[C@H]2[C@@H](C)C(=O)N(Cc3cn(-c4ccc(I)cc4)nn3)[C@@H]3O[C@@]4(C)CC[C@@H]1[C@@]23OO4
IC50 [1]: 10.3 µM
IC50 [2]: 31.3 µM
IC50 [3]: 9.2 µM
IC50 [4]: 12.4 µM
